What was measured:
[1] = tested on: Canary seed (CDC Bastia; 2018); test: Canary seed germination assay; type: in vivo
barley = test: Barley radical elongation assay; type: in vivo; conditions: 10 μM 1019 alone, 3.0 days post treatment (FIG. 11B)
Protocol: (§1) Seeds were surface sterilized by incubation in 10% bleach for 20 min with shaking, then rinsed four times with sterile water. Four ml of test solutions were pipetted into petri dishes (100×15 mm) that contain a single filter paper. Fifteen seeds were added to each dish. For rice, barely, and wheat, the experiment involved five treatments (5 μM ABA; 5 μM ABA+10 μM 1019; 10 μM 1019; water control; water+EtOH+NaOH control), with three replications per treatment. For sorghum, treatments were 10 μM ABA; 10 μM ABA+20 μM 1019; 20 μM 1019; water control; water+EtOH+NaOH control. Dishes were sealed with Parafilm, and incubated in the dark at room temperature. Radical length was measured daily post emergence using ImageJ software; shown are 3 days post treatment for barley, wheat and sorghum and 4.5 days post treatment for rice.

Botrytis cinerea = test: Pathogenicity test on detached Arabidopsis thaliana leaves; type: in vivo
wheat = test: Wheat radical elongation assay; type: in vivo; conditions: 10 μM 1019 alone, 3.0 days post treatment (FIG. 11C)
Protocol: as §1

[2] = tested on: Soybean (AAC Edward; 2018); test: Soybean germination assay; type: in vivo
Protocol: For each treatment 6 replicates of 10 seeds were plated into petri dishes lined with two filter papers and 10 mL of test solution. The covered dishes were stored at room temperature in the dark. Germinated seeds were counted over 24 hours. The following dosages were used when studying the effect of exemplary compounds of the application on soybean germination: control 1% DMSO. 10 μM ABA, 10 μM exemplary compound 1019, 100 um exemplary compound 1019, 10 μM exemplary compound 1019 plus 10 μM ABA and 100 uM exemplary compound 1019 plus 10 μM ABA.

[3] = tested on: ABA-inducible promoter of the MKKK18 gene (GUS reporter); test: ABA-inducible gene expression, MKKK18GUS reporter plants; type: in vivo, Arabidopsis; set-up: antagonist effect, GUS staining: dose or concentration left out as unconfirmed
Protocol: Transgenic MKKK18GUS Arabidopsis plants harbor an […] (GUS) reporter gene fused to an ABA-inducible promoter of the MKKK18 gene (Okamoto et al. 2013). Six-day-old MKKK18GUS plants were treated with ABA1019 alone or both ABA1019 and ABA for 6 hours. Plants were then stained with 5-bromo-4-chloro-3-indolyl-beta-D-glucuronic acid cyclohexyl ammonium salt (X-Glc) for 14 hours, and destained with 70% ethanol.

[4] = tested on: RIL from L. culinaris var Redberry x L. culinaris ssp. orientalis IG72595; test: Lentil RIL germination, emergence and time to flowering (F5-F7, F7 experiment); type: in vivo
Text: • DSTG=Days from seeding to germination • DSTE=Days from seeding to Emergence • DSTF=Days from seeding to flowering • DSTH=Days from seeding to harvesting of first seed (F7 was not included because the purpose of this generation was to harvest as many seeds as possible) • GA3=gibberellic acid • DMSO=solvent required for dissolving 1019-ABA F7 Experiment
Objective: Testing the effect of soaking seeds of the F7 generation in four solutions listed below.
Treatments: water, DMSO, 1019-ABA, and 1019-ABA for 1 day followed by 100 μM GA3
Plant material: Seeds derived from a cross between L. culinaris var Redberry and L. culinaris ssp. orientalis IG72595
Experimental set up: 207 RIL-lines in total; 4 seeds (repetitions) per line; 4 treatments
Data collection: Days from seeding to germination (DSTG), days from seeding to emergence (DSTE), and Days from seeding to first flower were counted. Days from seeding to first harvest was not determined because we needed as many seeds as possible in this generation.
Days to germination (DSTG), emergence (DSTE), time to flowering (DSTF) and first harvest (DSTH) were determined during the development of a recombinant inbred line (RIL) developed from a cross between L. culinaris var Redberry and L. culinaris ssp. orientalis IG72595. The aim of the project was to find and incorporate Aphanomyces root rot resistance into the cultivated lentil, and the L. orientalis accession was identified with improved resistance. During the development of this RIL line speed breeding techniques were applied i.e. warmer temperatures, longer day length, higher light intensity, restricted pot volume etc. In generation F5, the exemplary compound became available and was tested on germination and emergence. […] The F7 generation was set up as a proper experiment with four treatments i.e. 1019, water, DMSO (solvent needed for dissolving exemplary compound 1019), and exemplary compound 1019 for one day followed by 100 μM GA3 (FIG. 12).

Hard Red Spring wheat = Hard Red Spring wheat seedling growth (root and shoot length); type: in vivo
Protocol: For each treatment 3 replicates of 10 seeds were plated into petri dishes lined with two filter papers and 10 mL of test solution. The covered dishes were stored at room temperature in the dark. At 72 hours, germinated seeds were scored for root length and shoot length. The following dosages were used when studying the effect of the exemplary ABA analogues of the application on wheat shoot and root growth: control 1% DMSO. 10 μM ABA, 10 μM 1019, 100 μM exemplary compound 1019, 10 μM exemplary compound 1019 plus 10 μM ABA […] and 100 μM exemplary compound 1019 plus 10 μM ABA […].

[5] = F7 experiment, 207 lines (Table 2)
[6] = generation F7, 819 seeded (Table 1)

CC1=C(C#Cc2ccccc2)C(=O)CC(C)(C)[C@@]1(O)/C=C/C(C)=C\C(=O)O [Compound 1019, (2Z,4E)-5-((S)-1-Hydroxy-2,6,6-trimethyl-4-oxo-3-(phenylethynyl)cyclohex-2-en-1-yl)-3-methylpenta-2,4-dienoic acid]
canary seed germination ([1]; 10 μM compound plus 10 μM ABA, day 4): did not
canary seed germination ([1]; 100 μM compound plus 10 μM ABA, day 4): overcame inhibition
canary seed germination ([1]; compound alone, 10 μM or 100 μM): Neither concentration of exemplary compound 1019 affected germination
radical length (Least Square mean); radical elongation (barley): 2.83
disease lesions (Botrytis cinerea; 100 μM spray, 24 hours post inoculation (FIG. 14)): smaller lesions
disease development caused by B. cinerea (Botrytis cinerea; 100 μM spray, preliminary results): partially inhibits
symptom development (Botrytis cinerea; plants sprayed with 100 μM, versus mock control): slower
radical length (Least Square mean); radical elongation (wheat): 2.386
soybean seed germination ([2]; 10 and 100 μM compound in the presence of 10 μM ABA): overcame the inhibition
soybean seed germination ([2]; compound alone at 10 or 100 μM): did not affect
agonist activity, GUS staining ([3]; 2.5 μM applied alone, 6 hours): weak agonist activity
GUS staining compared to ABA alone ([3]; 1:1 ratio with ABA): a reduction in the GUS staining
antagonist effect, GUS staining ([3]; co-applied with ABA, dose dependent): potent antagonist effect
GUS staining compared to ABA alone ([3]; ratio of compound to ABA 10:1): abolition of the ABA GUS stain
emergence rate ([4]; F7 experiment): 100%
% Germ. [4, 5]: 99%
Germ. (number of seeds germinated) [4, 5]: 807
% Germ. ([4]; F7 experiment, 207 lines (Table 2), listed as 1019-ABA): 98.9%
seeds emerged ([4]; F7 experiment, four days after seeding (FIG. 12B)): 81%
days earlier flowering than water treatment ([4]; F7 experiment, on average): 4 days
DSTE (days from seeding to emergence) ([4]; generation CVF6): 4.03 days
DSTF (days from seeding to flowering) ([4]; generation CVF6): 26.14 days
DSTG (days from seeding to germination) ([4]; generation CVF6): 1.12 days
DSTH (days from seeding to harvesting of first seed) ([4]; generation CVF6): 44.02 days
Emerged (number of seeds emerged) ([4]; generation CVF6, 226 seeded): 226
Germ. (number of seeds germinated) ([4]; generation CVF6, 226 seeded): 226
DSTE (days from seeding to emergence) ([4]; generation F5): 4.93 days
DSTF (days from seeding to flowering) ([4]; generation F5): 28.22 days
DSTG (days from seeding to germination) ([4]; generation F5): 2.18 days
DSTH (days from seeding to harvesting of first seed) ([4]; generation F5): 45.41 days
Emerged (number of seeds emerged) ([4]; generation F5, 231 seeded): 225
Germ. (number of seeds germinated) ([4]; generation F5, 231 seeded): 230
Emerged (number of seeds emerged) [4, 6]: 791
Germ. (number of seeds germinated) [4, 6]: 816
root growth (Hard Red Spring wheat; 10 μM compound plus 10 μM ABA, 72 h (FIG. 9A)): restored root growth to close to control length
root growth (Hard Red Spring wheat; 100 μM compound alone, 72 h): not affected
shoot growth (Hard Red Spring wheat; 100 μM compound alone, 72 h): not inhibited
root growth (Hard Red Spring wheat; 100 μM compound plus 10 μM ABA, 72 h (FIG. 9A)): restored root growth to close to control length
shoot growth (Hard Red Spring wheat; compound plus 10 μM ABA, 72 h (FIG. 9B)): restored

Reference: US12063929B2, “3′-alkynyl abscisic acid derivatives as ABA antagonists” (University of Saskatchewan, priority 2018, dated 2024)
